Test results taken from PubChem BioAssay (NCI).
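96-well plates; 48 h exposure; 5 concentrations. Endpoints by linear interpolation between flanking doses. Not reached: highest tested concentration assigned. At the TGI there is no net growth.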 Where a SMILES comes first, the peptide text is derived from it. Side-chain parts run from the residue outwards. The star is where a group is joined. Cbz = O=C(OCc1ccccc1)*; Boc = CC(C)(C)OC(=O)*

Columns and labels:
Assay in all cases: inhibition of tumour cell growth, NCI panel, 48 h
[1] = system: SNB-19 CNS
[2] = system: SF-295 CNS
[3] = system: RXF 393 renal
[4] = system: SK-MEL-28 melanoma
[5] = system: OVCAR-4 ovarian
[6] = system: NCI/ADR-RES ovarian
[7] = system: CAKI-1 renal
[8] = system: OVCAR-3 ovarian
[9] = system: SK-MEL-2 melanoma
[10] = system: HOP-92 NSCLC

Structure (SMILES)	TGI [1]	TGI [2]	TGI [3]	TGI [4]	TGI [5]	TGI [6]	TGI [7]	TGI [8]	TGI [9]	TGI [10]
CCN(CC)C1Oc2cc3c(cc2C(c2cccc(OC)c2O)C1C)OCO3 (stereo not given)	31.4 µM	15.4 µM	21.2 µM	42.2 µM	> 100 µM	53.8 µM	27 µM	5.5 µM	27.4 µM	–
CC(=O)N1C(Nc2cccc3nc(C)ccc23)CCN1c1ccccc1 (stereo not given)	> 10 µM	> 10 µM	> 10 µM	> 10 µM	> 10 µM	> 10 µM	> 10 µM	> 10 µM	> 10 µM	–
COc1ccc(C2=C(Cl)c3cc(OC)c(OC)cc3C2)cc1OC	> 100 µM	> 100 µM	73.7 µM	> 100 µM	> 100 µM	–	–	–	–	> 100 µM
CC1=NN(C(=O)Cc2ccccc2)C(=O)/C1=C\c1ccccc1O	> 100 µM	> 100 µM	> 100 µM	> 100 µM	> 100 µM	–	> 100 µM	> 100 µM	> 100 µM	> 100 µM
CC1C(C#N)(C#N)C(C#N)=C(N)C1(C)[N+](=O)[O-] (stereo not given)	> 100 µM	> 100 µM	> 100 µM	–	> 100 µM	> 100 µM	> 100 µM	> 100 µM	> 100 µM	8.96 µM
COc1ccc(C2=NNC(c3cc4cc(Br)ccc4nc3Cl)C2)cc1 (stereo not given)	–	–	–	> 25 µM	> 25 µM	–	> 25 µM	> 25 µM	> 25 µM	> 25 µM
Cn1nc2ccc3nccc(NCCNCCO)c3c2n1	> 100 µM	> 100 µM	87.5 µM	> 100 µM	> 100 µM	–	> 100 µM	> 100 µM	–	> 100 µM
CC1CCOc2ccc(cc2)C=Nc2ccc(cc2)-c2ccc(cc2)N=Cc2ccc(cc2)OCC1 (stereo not given)	–	> 100 µM	–	> 100 µM	> 100 µM	> 100 µM	> 100 µM	> 100 µM	> 100 µM	> 100 µM
Cn1c(COC(=O)NC2CCCCC2)c(COC(=O)NC2CCCCC2)c2ccc3cc(C=O)ccc3c21	> 100 µM	> 100 µM	> 100 µM	–	–	> 100 µM	> 100 µM	> 100 µM	> 100 µM	> 100 µM
Cc1cn([C@@H]2C[C@H](CO)[C@@H]2O)c(=O)[nH]c1=O	–	> 100 µM	> 100 µM	> 100 µM	> 100 µM	> 100 µM	> 100 µM	> 100 µM	> 100 µM	> 100 µM
NC1=Nc2ccccc2Sc2nc3ccccc3n21	> 100 µM	> 100 µM	> 100 µM	–	> 100 µM	> 100 µM	–	> 100 µM	–	> 100 µM
O=C1CC(C(COCc2ccccc2)OCc2ccccc2)CC(=O)N1 (stereo not given)	> 100 µM	> 100 µM	–	> 100 µM	–	–	> 100 µM	> 100 µM	–	> 100 µM
C1=CN2C[n+]3ccc4ccccc4c3N=C2c2ccccc21	33.3 µM	24 µM	–	–	–	> 100 µM	50.2 µM	3.51 µM	9.33 µM	7.92 µM
C[N+]1([O-])[C@H]2CC(OC(=O)[C@H](CO)c3ccccc3)C[C@H]1[C@H]1O[C@H]12 (stereo not given in full)	> 100 µM	> 100 µM	> 100 µM	> 100 µM	> 100 µM	> 100 µM	> 100 µM	> 100 µM	> 100 µM	–
O=C(CC(c1ccccc1)C(C(=O)c1ccncc1)C(CC(=O)c1ccncc1)c1ccccc1)c1ccncc1 (stereo not given)	> 100 µM	70.3 µM	–	> 100 µM	–	> 100 µM	> 100 µM	> 100 µM	> 100 µM	> 100 µM
O=C(Nc1ccc(Sc2ccc(N=Nc3c(O)c(S(=O)(=O)O)cc4cc(S(=O)(=O)O)ccc34)cc2)cc1)c1ccc(N=Nc2c(O)c(S(=O)(=O)O)cc3cc(S(=O)(=O)O)ccc23)cc1	> 100 µM	> 100 µM	71.7 µM	86.5 µM	> 100 µM	–	> 100 µM	54.9 µM	96.8 µM	92.4 µM
CO[C@]12CC(=O)C3(C(C[C@H]4CC5CC[C@H]6C[C@@H](OC(C)=O)CC[C@]6(OC(C)=O)C5C[C@@]43C)C1)C1C[C@H]3[C@@H]4CC[C@H]5C[C@@H](OC(C)=O)CC[C@]5(OC(C)=O)[C@H]4CC[C@]3(C)C12 (stereo not given in full)	> 100 µM	> 100 µM	–	> 100 µM	> 100 µM	> 100 µM	> 100 µM	> 100 µM	> 100 µM	> 100 µM
O=C(NN1C(=O)C(Cl)C1c1ccccc1Cl)c1ccccc1O (stereo not given)	> 100 µM	> 100 µM	88.2 µM	> 100 µM	> 100 µM	–	–	> 100 µM	> 100 µM	–
COc1cc(O)cc(O)c1C(=O)CC(Cl)(Cl)Cl	> 100 µM	> 100 µM	> 100 µM	> 100 µM	> 100 µM	> 100 µM	> 100 µM	> 100 µM	–	> 100 µM
COc1cc2c(c(OC)c1OC)-c1ccc(SC)c(=O)cc1[C@@H](NCc1cccc([N+](=O)[O-])c1)CC2	> 100 µM	> 100 µM	–	–	> 100 µM	–	> 100 µM	< 0.01 µM	–	> 100 µM
C[N+](C)(C)CC(CC(=O)[O-])C1CC1 (stereo not given)	> 100 µM	> 100 µM	> 100 µM	> 100 µM	> 100 µM	–	> 100 µM	> 100 µM	> 100 µM	> 100 µM
CC(C)(C)OC(=O)NC(CCCCNC(=O)CNC(=O)OCc1ccccc1)C(=O)NC(CCCCNC(=O)CNC(=O)OCc1ccccc1)C(=O)NC(CCCCNC(=O)CNC(=O)OCc1ccccc1)C(=O)NC(CCCCNC(=O)CNC(=O)OCc1ccccc1)C(=O)O (stereo not given) (Boc-K([Gly-Cbz])K([Gly-Cbz])K([Gly-Cbz])K([Gly-Cbz])-OH; configuration not given here)	> 100 µM	–	–	> 100 µM	–	–	> 100 µM	> 100 µM	> 100 µM	–
Cc1ccc(NC(=O)/C(=N/NC(=O)C[N+](C)(C)C)c2nc3ccccc3[nH]c2=O)cc1	> 100 µM	> 100 µM	> 100 µM	> 100 µM	> 100 µM	–	> 100 µM	> 100 µM	> 100 µM	> 100 µM
Cn1cnc(SC2=C3C(=O)C=C4S[C@H]5C[C@]42c2c(c(O)c4c6c2=[N+]3CCC=6C=N4)N5)c1CC(N)C(=O)O (stereo not given in full)	32 µM	29.4 µM	43.8 µM	31.9 µM	31.1 µM	–	79.1 µM	14.6 µM	28.2 µM	34.5 µM
